Data as given in patent US20070161542A1, “Ptb1b photoprobes” (priority 2003, published 2007).

What was measured:
[1] = Photolysis of the probes in water (time course, quantum yield); type: physicochemical; conditions: chemical actinometry; absorbance at 345 and 350 nm for Examples 9 and 1
Description: A time course for photolysis of the probes in water was determined by measuring product formation by HPLC-MS. […] Based on the time course of photolysis of an aqueous probe with a 40 W lamp, t1/2 values of about 2 min were measured using the 40 W lamp. When a 450 W lamp was used, the t1/2 was reduced to less than 30 sec.
The quantum yield of the photoprobes was determined from the number of photons absorbed and the number of moles of photolysis product that were formed. The number of photons absorbed was determined by chemical actinometry, using the method of Parker (26). The moles of irradiated product produced over time was measured by measuring the absorbance at 345 and 350 nm for Examples 9 and 1 respectively. The quantum yield was calculated to be 0.83 and 0.74 for Examples 9 and 1 respectively.

[2] = target: T1, PTP1B in HEPG2 whole cells (Homo sapiens, UniProt P18031); test: Labeling of endogenous PTP1B in HEPG2 whole cells; type: cell-based; conditions: mass balance on total counts, 5 nM probe
T1 construct: Labeling of Endogenous PTP1B in HEPG2 Cell Lysate; endogenous in cells; host or cells: HepG2 (human hepatoma, ATCC)
T1 sequence (P18031 1-435): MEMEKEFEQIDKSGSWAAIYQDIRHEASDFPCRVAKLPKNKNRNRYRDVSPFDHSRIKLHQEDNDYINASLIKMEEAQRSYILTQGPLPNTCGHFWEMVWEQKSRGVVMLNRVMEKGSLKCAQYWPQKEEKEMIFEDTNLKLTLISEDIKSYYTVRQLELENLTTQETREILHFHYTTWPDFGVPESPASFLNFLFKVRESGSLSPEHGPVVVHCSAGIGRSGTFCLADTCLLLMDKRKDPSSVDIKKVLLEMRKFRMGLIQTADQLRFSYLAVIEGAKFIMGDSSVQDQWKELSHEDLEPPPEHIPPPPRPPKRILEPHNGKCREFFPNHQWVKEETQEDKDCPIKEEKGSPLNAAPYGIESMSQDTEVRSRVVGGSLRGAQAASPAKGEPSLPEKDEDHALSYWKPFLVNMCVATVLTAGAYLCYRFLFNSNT
Description: Human hepatoma cells (HepG2) were obtained from American Type Culture Collection and maintained in regular MEM containing 10% FBS and 1% antibiotics at 37° C., 5% CO2. For photoprobe experiments, cells (2×10^4) were grown until 80% confluence in 6-well plates and serum starved for 14 hours by incubating in MEM with 1% antibiotics without FBS.
HEPG2 cells were grown to ˜80% confluency in 6-well dishes. Media was removed and washed twice with Hanks-Hepes buffer (15 mM Hepes). For HepG2 lysate studies, the cells were lysed on ice for 15 minutes using 1 ml lysate buffer (50 mM Tris pH 7.4, 150 mM NaCl, 1% Triton X-100, 5 mM EDTA, 5 mM DTT, Complete™ protease inhibitor tablet). […] The protein concentration of the lysates was determined by the method of Lowry (detergent compatible).
PTP1B was immunoprecipitated from HepG2 cell lysates (1 ml of 1 mg/ml) using 3.5 ug of anti-PTP1B antibody (BDT) overnight at 4° C. with rotation. […] For autoradiogram detection of radioactivity, the gels were dried and exposed to BioMax MS film with an intensifying screen at −80° C. Protein bands were quantified using a scanning densitometer (Bio-Rad).
The compound of Example 1 at various concentrations was incubated with HEPG2 whole cells for 30 min and was irradiated on ice for 15 min. The cells were then lysed, and labeled PTP1B was measured after immunoprecipitation. […]

Row | Structure (SMILES) | quantum yield [1] | cell permeability (share of probe associated with the cell) [2]
1 | NC(=O)[C@H](Cc1ccc(C(F)(F)P(=O)(O)O)cc1)NC(=O)[C@H](Cc1ccc(C(F)(F)P(=O)(O)O)cc1)NC(=O)c1cc(I)cc(C2(C(F)(F)F)N=N2)c1 [Example 9, 4-(Difluoro(phosphono)methyl)-N-(3-iodo-5-(3-(trifluoromethyl)-3H-diaziren-3-yl)benzoyl)-L-phenylalanyl-4-(difluoro(phosphono)methyl)-L-phenylalaninamide] | 0.83 | 
2 | NC(=O)[C@H](Cc1ccc(C(F)(F)P(=O)(O)O)c(Br)c1)NC(=O)[C@H](Cc1ccc(C(F)(F)P(=O)(O)O)c(Br)c1)NC(=O)c1cc(I)cc(C2(C(F)(F)F)N=N2)c1 [Example 1, Tetraamnionium 3-bromo-4-(difluoro(phosphonato)methyl)-N-(3-iodo-5-(3-(trifluoromethyl)-3H-diaziren-3-yl)benzoyl)-L-phenylalanyl-3-bromo-4-(difluoro(phosphonato)methyl)-L-phenylalaninamide] |  | around 10%
